Assay [1] addresses Glutamate-cysteine ligase gshA (Escherichia coli) (UniProt P0A6W9). Put plainly: Tested for inhibition of Escherichia coli gamma-glutamylcysteine synthetase at a concentration of 5.1 uM.
The target is the same in assay [2]. Put plainly: Tested for inhibition of Escherichia coli gamma-glutamylcysteine synthetase at a concentration of 5.7 uM.

Broadly, the Ki is a dissociation constant, usually derived from enzyme kinetics or from competition with a known ligand. A high value points to weaker binding.

Chain of Glutamate-cysteine ligase gshA (Escherichia coli) (P0A6W9 whole entry, looked up): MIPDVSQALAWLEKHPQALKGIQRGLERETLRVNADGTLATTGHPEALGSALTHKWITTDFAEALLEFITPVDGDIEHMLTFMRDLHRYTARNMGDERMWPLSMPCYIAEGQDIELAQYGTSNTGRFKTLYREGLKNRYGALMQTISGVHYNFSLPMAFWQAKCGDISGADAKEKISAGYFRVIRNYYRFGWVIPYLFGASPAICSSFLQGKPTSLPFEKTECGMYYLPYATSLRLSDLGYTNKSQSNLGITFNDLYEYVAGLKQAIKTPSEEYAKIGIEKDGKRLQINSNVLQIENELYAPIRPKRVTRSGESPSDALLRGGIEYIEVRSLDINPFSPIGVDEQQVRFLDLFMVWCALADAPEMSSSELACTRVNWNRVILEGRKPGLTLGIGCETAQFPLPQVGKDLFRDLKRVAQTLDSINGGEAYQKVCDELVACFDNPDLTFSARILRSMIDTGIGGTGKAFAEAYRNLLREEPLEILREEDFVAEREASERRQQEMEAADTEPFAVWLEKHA

For the molecule `CCCCS(=N)(=O)CCC(=N)C(=O)O` (configuration not stated), the inhibition constant Ki in assay [1] was 49.3 µM.

As to `CCC(CP(=O)(O)CC[C@H](N)C(=O)O)C(=O)O` (stereo partly drawn) [(2S)-2-ammonio-4-[(2-carboxylatobutyl)phosphinato]butanoate], the affinity in assay [2] corresponds to a Ki of 4.95 µM.

Values taken from BindingDB's records for doi:10.1016/S0960-894X(96)00247-8 (1996).
